Assays:
Assay in all cases: Test E greenhouse herbicide test, pre- and postemergence
Type in all cases: in vivo
[1] = tested on: goosegrass (Eleusine indica); details: Preemergence
How it was run: (§1)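 Visual rating vs untreated controls, 0 = no effect, 100 = complete control, after 14–21 d greenhouse. Pre: seeded silt loam treated with surfactant-containing solvent formulation. Post: 1–4-leaf plants (2–18 cm) in peat/vermiculite medium.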

[2] = tested on: waterhemp (common waterhemp, Amaranthus rudis)
How it was run: as §1

[3] = tested on: wild poinsettia (Euphorbia heterophylla); details: Postemergence
How it was run: as §1

[4] = 62 g ai/ha, scale 0 to 100 (0 no effect, 100 complete control)
[5] = 31 g ai/ha, scale 0 to 100, 0 no effect, 100 complete control
[6] = 125 g ai/ha, visual, scale 0 no effect to 100 complete control
[7] = 250 g ai/ha, visual, scale 0 no effect to 100 complete control
[8] = 62 g ai/ha, Postemergence, scale 0 to 100 (0 no effect, 100 complete control)
[9] = 62 g ai/ha, Preemergence, scale 0 to 100 (0 no effect, 100 complete control)
[10] = 125 g ai/ha, Postemergence, scale 0 to 100 (0 no effect, 100 complete control)
[11] = 125 g ai/ha, Preemergence, scale 0 to 100 (0 no effect, 100 complete control)
[12] = 250 g ai/ha, Postemergence, scale 0 to 100 (0 no effect, 100 complete control)
[13] = Postemergence, 31 g ai/ha, visual, scale 0 no effect to 100 complete control
[14] = Preemergence, 31 g ai/ha, scale 0 to 100, 0 no effect, 100 complete control
[15] = Preemergence, 250 g ai/ha, visual, scale 0 no effect to 100 complete control
[16] = 125 g ai/ha, scale 0 to 100 (0 no effect, 100 complete control)
[17] = 250 g ai/ha, scale 0 to 100 (0 no effect, 100 complete control)
[18] = 31 g ai/ha, visual, scale 0 no effect to 100 complete control

| Structure (SMILES) | Plant response rating, Goosegrass [1, 4] | Plant response rating, Goosegrass [1, 5] | Plant response rating, Goosegrass [1, 6] | Plant response rating, Goosegrass [1, 7] | Plant response rating, Waterhemp [2, 8] | Plant response rating, Waterhemp [2, 9] | Plant response rating, Waterhemp [2, 10] | Plant response rating, Waterhemp [2, 11] | Plant response rating, Waterhemp [2, 12] | Plant response rating, Waterhemp [2, 13] | Plant response rating, Waterhemp [2, 14] | Plant response rating, Waterhemp [2, 15] | Plant response rating, Poinsettia, Wild [3, 4] | Plant response rating, Poinsettia, Wild [3, 16] | Plant response rating, Poinsettia, Wild [3, 17] | Plant response rating, Poinsettia, Wild [3, 18] | Plant response rating, Goosegrass [1, 16] |
| --- | --- | --- | --- | --- | --- | --- | --- | --- | --- | --- | --- | --- | --- | --- | --- | --- | --- |
| CC(=O)Oc1c(C)nn(C)c(=O)c1-c1c(C)sc2ccc(C)cc12 [Compound 25] | 65 | 20 | 80 | 90 | 80 | 100 | 85 | 100 | 90 | 80 | 100 | 100 | 30 | 35 | 60 | 35 | – |
| CC(=O)Oc1c(C)nn(C)c(=O)c1-c1c(C)sc2c(C)cc(C)cc12 [Compound 27] | 75 | 35 | 80 | 85 | – | 90 | – | 85 | – | – | 95 | 95 | – | – | – | – | – |
| CCOC(=O)Oc1c(C)nn(C)c(=O)c1-c1c(CC)ccc2ccccc12 [Compound 37] | 35 | 35 | 75 | 80 | – | 75 | – | 98 | – | – | 0 | 100 | – | – | – | – | – |
| CCC(=O)Oc1c(C)nn(C)c(=O)c1-c1c(C)sc2ccc(C)cc12 [Compound 42] | – | – | – | – | 80 | – | 100 | – | 90 | 75 | – | – | – | – | – | – | – |
| Cc1ccc2ccccc2c1-c1c(O)c(C)nn(C)c1=O [Compound 59] | 95 | 90 | 98 | 98 | – | 100 | – | 100 | – | – | 75 | 100 | – | – | – | – | – |
| CCOC(=O)Oc1c(C)nn(C)c(=O)c1-c1c(C)sc2c(C)cc(C)cc12 [Compound 83] | 0 | 0 | – | 25 | – | 65 | 40 | 75 | 60 | 40 | 65 | 75 | – | – | – | – | 5 |
| Cc1cc(C)c2sc(C)c(-c3c(OC(=O)OCCCl)c(C)nn(C)c3=O)c2c1 [Compound 85] | 5 | 5 | – | 20 | – | 80 | 65 | 70 | 90 | 50 | 35 | 85 | – | – | – | – | 5 |
| COc1nn(C)c(=O)c(-c2c(C)sc3ccc(Cl)cc23)c1O [Compound 100] | – | – | – | – | – | – | – | – | 90 | 80 | – | – | 0 | 10 | 35 | 0 | – |
| CSCC(=O)Oc1c(C)nn(C)c(=O)c1-c1cccc2ccccc12 [Compound 171] | – | – | – | – | – | – | 85 | – | 90 | 80 | – | – | 30 | 40 | 80 | 25 | – |

Source: patent US10597388B2, “Pyridazinone herbicides” (FMC CORPORATION, priority 2014, dated 2020)
